Measured values: patent US20080221134A1, “8-ALKYNYLXANTHINES AND DERIVATIVES” (priority 2006, published 2008)

Assays:
Rat A1 AR = molecular target: T1, Rat A1 AR (Rattus norvegicus, UniProt P25099); assay: Radioligand binding assay 1, rat A1 adenosine receptor; conditions: rat cortex, [3H]CCPA
T1 construct: Rat brain preparations were used for A1- and A2A adenosine receptor (AR); from tissue; host or cells: rat cortex
T1 sequence (P25099 1-326): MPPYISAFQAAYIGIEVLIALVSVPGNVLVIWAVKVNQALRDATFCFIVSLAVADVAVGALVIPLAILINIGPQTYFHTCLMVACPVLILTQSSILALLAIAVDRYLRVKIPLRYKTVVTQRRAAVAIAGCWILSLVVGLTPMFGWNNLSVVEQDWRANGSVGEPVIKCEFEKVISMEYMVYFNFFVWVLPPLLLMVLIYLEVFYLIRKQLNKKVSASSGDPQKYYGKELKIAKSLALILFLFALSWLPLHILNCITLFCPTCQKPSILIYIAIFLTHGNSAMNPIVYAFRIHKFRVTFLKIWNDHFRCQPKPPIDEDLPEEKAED
Procedure: (§1) Rat brain preparations were used for A1- and A2A adenosine receptor (AR) and human recombinant cell samples for A1-, A2A- and A3 adenosine receptor radioligand binding studies. Affinity and selectivity was tested in displacement experiments with following radioligands: [^3H]CCPA for A1-adenosine receptors, [^3H]MSX-2 for A2A-receptors and [^3H]PSB-11 for A3-receptors. Results of these experiments are depicted in table 2b (human data) and table 2a (rat data). Radioligand binding test systems are e.g. generally described by Muller et al., Curr. Pharm. Des., 1996, 2, 501 and Weyler et al., ChemMedChem 2006, 1, 891 and references cited therein) These documents are incorporated herein by reference.

Rat A2A AR = molecular target: T2, Rat A2A AR (Rattus norvegicus, UniProt P30543); assay: Radioligand binding assay 1, rat A2A adenosine receptor; conditions: rat striatum, [3H]MSX-2
T2 construct: A2A adenosine receptors from rat striatum; from tissue; host or cells: rat striatum
T2 sequence (P30543 whole entry): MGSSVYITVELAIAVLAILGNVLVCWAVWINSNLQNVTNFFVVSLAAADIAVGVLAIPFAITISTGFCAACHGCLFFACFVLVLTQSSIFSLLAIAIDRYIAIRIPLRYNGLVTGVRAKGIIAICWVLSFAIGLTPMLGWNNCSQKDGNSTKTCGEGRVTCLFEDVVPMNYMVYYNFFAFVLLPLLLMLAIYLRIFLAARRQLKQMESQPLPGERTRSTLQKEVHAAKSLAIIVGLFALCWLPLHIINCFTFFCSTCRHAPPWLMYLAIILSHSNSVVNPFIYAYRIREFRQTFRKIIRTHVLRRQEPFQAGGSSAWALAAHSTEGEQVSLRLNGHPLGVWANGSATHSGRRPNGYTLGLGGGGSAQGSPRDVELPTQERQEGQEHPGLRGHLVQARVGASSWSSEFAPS
Procedure: as §1

SMILES	Ki (Rat A1 AR) [nM]	Ki (Rat A2A AR) [nM]
C#CCn1c(=O)c2c(nc(C#Cc3ccc(OC)c(OC)c3)n2C)n(Cc2cnc[nH]2)c1=O [drawing 527]	> 1000	28.8 ± 4.1
C#CCn1c(=O)c2c(nc(C#Cc3cccc(OC)c3)n2C)n(CCBr)c1=O	> 1000	90 ± 25
C#CCn1c(=O)c2c(nc(C#Cc3ccc(OC)c(OC)c3)n2C)n(CCC(F)(F)F)c1=O	234 ± 47	24.2 ± 3.8
C#CCn1c(=O)c2c(nc(C#Cc3cccc(Cl)c3)n2C)n(CC)c1=O	488 ± 253	141 ± 28
C#CCn1c(=O)c2c(nc(C#Cc3ccc(OC)c(OC)c3)n2C)n(CC(O)CO)c1=O (stereo not drawn) [drawing 537]	> 1000	42.3 ± 5.7
C#CCn1c(=O)c2c(nc(C#Cc3cccc(OCCCN(C)C)c3)n2C)n(C)c1=O [drawing 470]	186 ± 3	40 ± 1
C#CCn1c(=O)c2c(nc(C#Cc3ccc(F)c(OC)c3)n2C)n(C)c1=O	> 1000	70.3 ± 5.39
C#CCn1c(=O)c2c(nc(C#Cc3ccc(OC)c(OC)c3)n2C)n(Cc2cccs2)c1=O [drawing 520]	> 1000	103 ± 21
C#Cn1c(=O)c2c(nc(C#Cc3ccc(Cl)c(Cl)c3)n2C)n(C)c1=O	> 1000	> 1000
C#CCn1c(=O)c2c(nc(C#Cc3cccc(OC)c3)n2C)n(CC(O)CO)c1=O (stereo not drawn) [drawing 492]	> 1000	69.8 ± 17.1
C#CCn1c(=O)c2c(nc(C#Cc3ccc(OC)c(OC)c3)n2C)n(CCF)c1=O [drawing 518]	≥ 1000	9.99 ± 0.7
C#CCn1c(=O)c2c(nc(C#Cc3cncn3C)n2C)n(CC)c1=O [drawing 511]	460 ± 61	119 ± 26
C#CCn1c(=O)c2c(nc(C#Cc3ccc(OC)c(OC)c3)n2C)n(C)c1=O [drawing 458]	> 10000	32.7 ± 6.1
C#CCn1c(=O)c2c(nc(C#Cc3ccc(OC)c(OC)c3)n2C)n(C(C)C)c1=O [drawing 516]	≥ 1000	118 ± 19
C#CCn1c(=O)c2c(nc(C#Cc3ccc(F)c(OC)c3)n2C)n(CC)c1=O [drawing 519]	> 1000	43.1 ± 13.2
C#CCn1c(=O)c2c(nc(C#Cc3ccc(OC)c(OC)c3)n2C)n(C(C)C(C)=O)c1=O (stereo not drawn) [drawing 524]	157 ± 12	16 ± 6
C#CCn1c(=O)c2c(nc(C#Cc3cccc(OC)c3)n2C)n(CCN(C)C)c1=O [drawing 536]	> 1000	161 ± 35
C#CCn1c(=O)c2c(nc(C#Cc3cccc(OC)c3)n2C)n(CC)c1=O [drawing 485]	> 10000	49.9 ± 9.7
C#CCn1c(=O)c2c(nc(C#Cc3ccoc3)n2C)n(CC)c1=O	> 1000	220 ± 21
C#CCn1c(=O)c2c(nc(C#Cc3ccccc3OC)n2C)n(C)c1=O	> 10000	> 10000
C#CCn1c(=O)c2c(nc(C#Cc3cccc(OC(C)=O)c3)n2C)n(C)c1=O [drawing 472]	1170 ± 731	140 ± 12
C#CCn1c(=O)c2c(nc(C#Cc3cccc(OC)c3)n2C)n(CCC2OCCO2)c1=O	≥ 1000	120 ± 18

SMILES	Ki (Rat A1 AR) [nM]	Ki (Rat A2A AR) [nM]
C#CCn1c(=O)c2c(nc(C#Cc3ccc(OC)c(OC)c3)n2C)n(Cc2ccoc2)c1=O [drawing 509]	> 1000	5.16 ± 1.91
C#CCn1c(=O)c2c(nc(C#Cc3ccc(OC)c(OC)c3)n2C)n(CC(O)CO)c1=O (stereo not drawn) [drawing 493]	≥ 1000	42.3 ± 5.7
C#CCn1c(=O)c2c(nc(C#Cc3ccc(OC)cc3)n2C)n(CC)c1=O	> 1000	28.6 ± 13.3
C#CCn1c(=O)c2c(nc(C#Cc3ccc(OC)c(OC)c3)n2C)n(CC(=O)OCC)c1=O	≥ 1000	167 ± 82
C#CCn1c(=O)c2c(nc(C#Cc3cccc(OC)c3)n2C)n(CC#C)c1=O	> 10000	80.7 ± 21.1
C#CCn1c(=O)c2c(nc(C#Cc3ccc(OC)c(OC)c3)n2C)n(CCNC)c1=O	≥ 1000	134 ± 16
C#CCn1c(=O)c2c(nc(C#Cc3ccsc3)n2C)n(CC)c1=O [drawing 510]	> 1000	108 ± 31
C#CCn1c(=O)c2c(nc(C#Cc3ccccc3)n2C)n(C)c1=O [drawing 452]	> 1000	186 ± 60
C#CCn1c(=O)c2c(nc(C#Cc3ccc(OC)c(OC)c3)n2C)n(CCC#N)c1=O [drawing 501]	> 1000	76.4 ± 32.9
C#CCn1c(=O)c2c(nc(C#Cc3cccc(Br)c3)n2C)n(C)c1=O [drawing 462]	≥ 10000	151 ± 19
C#CCn1c(=O)c2c(nc(C#Cc3ccc4c(c3)OCO4)n2C)n(CC)c1=O	> 1000	29.6 ± 6.1
C#CCn1c(=O)c2c(nc(C#Cc3ccc(OC)c(OC)c3)n2C)n(CCCCF)c1=O	209 ± 42	11.7 ± 1.7
C#CCn1c(=O)c2c(nc(C#Cc3ccc(OC)c(OC)c3)n2C)n(Cc2ccno2)c1=O	> 1000	17.9 ± 5.5
C#CCn1c(=O)c2c(nc(C#Cc3cccc(OC)c3)n2C)n(CC2CO2)c1=O (stereo not drawn)	> 1000	38.2 ± 12
C#CCn1c(=O)c2c(nc(C#Cc3cccc(OCC=C)c3)n2C)n(C)c1=O	≥ 10000	152 ± 63
C#CCn1c(=O)c2c(nc(C#Cc3ccc(OC)c(OC)c3)n2C)n(CC)c1=O [drawing 487]	> 3000	47.2 ± 7.3
C#CCn1c(=O)c2c(nc(C#Cc3ccc(OC)c(OC)c3)n2C)n(CC(C)O)c1=O (stereo not drawn) [drawing 502]	189 ± 33	13.3 ± 1.4
C#CCn1c(=O)c2c(nc(C#Cc3ccc(OC)c(OC)c3)n2C)n(CCC)c1=O [drawing 515]	≥ 1000	13.4 ± 6.5
C#CCn1c(=O)c2c(nc(C#Cc3ccc(OC)c(OC)c3)n2C)n(CC=C)c1=O	> 1000	9.5 ± 1.6
C#CCn1c(=O)c2c(nc(C#Cc3ccc(OC)c(OC)c3)n2CC#C)n(CC)c1=O	> 1000	132 ± 60
C#CCn1c(=O)c2c(nc(C#Cc3cccc(OCCCO)c3)n2C)n(C)c1=O [drawing 468]	≥ 10000	211 ± 46
C#CCn1c(=O)c2c(nc(C#Cc3cc(OC)cc(OC)c3)n2C)n(C)c1=O	> 10000	190 ± 50

SMILES	Ki (Rat A1 AR) [nM]	Ki (Rat A2A AR) [nM]
C#CCn1c(=O)c2c(nc(C#Cc3ccc(OC)c(OC)c3)n2C)n(Cc2ccco2)c1=O [drawing 503]	76.8 ± 22.9	6.74 ± 1
C#CCn1c(=O)c2c(nc(C#Cc3ccc(OC)c(OC)c3)n2C)n(CC(C)C)c1=O [drawing 517]	≥ 1000	5.54 ± 1.3
C#CCn1c(=O)c2c(nc(C#Cc3ccc(OC)c(OC)c3)n2C)n(CCCO)c1=O [drawing 533]	337 ± 67	30.1 ± 5.4
CCn1c(=O)n(Cc2ccoc2)c(=O)c2c1nc(C#Cc1ccc(OC)c(OC)c1)n2C	1250 ± 106	90.7 ± 11.2
C#CCn1c(=O)c2c(nc(C#Cc3ccc(OCC)c(OCC)c3)n2C)n(CC)c1=O [drawing 497]	> 1000	166 ± 50
C#CCn1c(=O)c2c(nc(C#Cc3ccc(OC)c(F)c3)n2C)n(CC)c1=O	≥ 1000	52.6 ± 19.5
C#CCn1c(=O)c2c(nc(C#Cc3ccc(OC)c(OC)c3)n2C)n(CCO)c1=O [drawing 499]	> 1000	45.5 ± 10.4
CCn1c(=O)n(Cc2ccco2)c(=O)c2c1nc(C#Cc1ccc(OC)c(OC)c1)n2C	208 ± 54	90.9 ± 7
C#CCn1c(=O)c2c(nc(C#Cc3cccc(OC)c3)n2CC#N)n(C)c1=O	> 1000	56.2 ± 12.9
C#CCn1c(=O)c2c(nc(C#Cc3cccc(OC)c3)n2C)n(CC=C)c1=O [drawing 490]	> 1000	41.8 ± 4.3
C#CCn1c(=O)c2c(nc(C#Cc3ccc(OC)c(OC)c3)n2C)n(CCCF)c1=O	≥ 1000	16.3 ± 2.8
C#CCn1c(=O)[nH]c2nc(C#Cc3cccc(OC)c3)n(C)c2c1=O	> 1000	135 ± 28
C#CCn1c(=O)c2c(nc(C#Cc3ccc(OC)c(OC)c3)n2C)n(CC(F)(F)F)c1=O	≥ 1000	12.7 ± 2.8
C#CCn1c(=O)c2c(nc(C#Cc3ccc(OC)c(OC)c3)n2C)n(CC(=O)CC)c1=O	> 1000	91.7 ± 38.3
C#CCn1c(=O)c2c(nc(C#Cc3cccc(OCC)c3)n2C)n(C)c1=O	~10000	174 ± 42
C#CCn1c(=O)c2c(nc(C#Cc3cc(C)c(C)cc3C)n2C)n(C)c1=O	> 10000	4340 ± 840
C#CCn1c(=O)c2c(nc(C#Cc3cccc(C)c3)n2C)n(C)c1=O [drawing 460]	> 10000	43.4 ± 11.6
C#CCn1c(=O)c2c(nc(C#Cc3ccc(OC)c(OC)c3)n2C)n(CCOCC)c1=O	> 1000	35.6 ± 14.1
C#CCn1c(=O)c2c(nc(C#Cc3ccc(OC)c(OC)c3)n2C)n(CC(C)=O)c1=O [drawing 525]	> 1000	18.5 ± 5
C#CCn1c(=O)c2c(nc(C#Cc3cccc(OC)c3)n2C)n(CCO)c1=O [drawing 491]	> 1000	103 ± 15
C#CCn1c(=O)c2c(nc(C#Cc3cccc(OC)c3)n2C)n(CCCO)c1=O [drawing 484]	142 ± 8	11.8 ± 1.6
C#CCn1c(=O)c2c(nc(C#Cc3ccc4c(c3)OCO4)n2C)n(C)c1=O [drawing 476]	> 10000	166 ± 34
